Results: patent US20260144788A1, “COMPOUND FOR SHP2 PROTEIN DEGRADATION AND MEDICAL USES THEREOF” (UBIX THERAPEUTICS, INC., priority 2022, published 2026)

Target: T1, SHP2 protein (Homo sapiens, UniProt Q06124)
T1 sequence (Q06124 1-593): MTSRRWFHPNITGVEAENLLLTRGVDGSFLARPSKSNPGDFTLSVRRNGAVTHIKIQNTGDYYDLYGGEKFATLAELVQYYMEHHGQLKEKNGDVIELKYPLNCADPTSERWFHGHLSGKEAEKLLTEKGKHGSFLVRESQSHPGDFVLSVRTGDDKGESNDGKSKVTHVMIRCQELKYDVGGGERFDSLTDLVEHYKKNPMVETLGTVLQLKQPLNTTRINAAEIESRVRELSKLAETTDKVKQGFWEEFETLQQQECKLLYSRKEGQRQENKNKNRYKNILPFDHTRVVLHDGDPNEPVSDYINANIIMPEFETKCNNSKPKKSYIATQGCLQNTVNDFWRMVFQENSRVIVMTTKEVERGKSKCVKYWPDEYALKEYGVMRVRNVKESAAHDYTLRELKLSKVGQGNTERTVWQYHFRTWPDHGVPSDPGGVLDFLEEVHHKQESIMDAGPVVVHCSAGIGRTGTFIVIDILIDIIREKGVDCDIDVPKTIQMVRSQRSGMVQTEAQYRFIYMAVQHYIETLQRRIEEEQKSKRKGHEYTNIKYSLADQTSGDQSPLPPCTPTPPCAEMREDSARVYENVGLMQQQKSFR
Experiment: Measurement of SHP2 protein degradation in NCI-H358 cells (western blotting)
Format: cell-based
Parameters: endogenous in cells; host or cells: NCI-H358
Conditions: harvested after 24 hours
Method: H358 cells were treated with the synthesized Example compounds, and the amount of SHP2 protein present in the cells was measured using western blotting detection. The protocol for the experiment using H358 cells is as follows.
[Culture]H358 cells were resuspended in RPMI1640 with 25 mM HEPES (Hyclone, SH30255.01), 10% FBS (Hyclone, SV30207.02), 1% Penicillin-streptomycin (Welgene, LS 202-02) media, seeded at 3×10^5/mL in 12-well plates (1 mL each), and cultured for 24 hours.
[Compound treatment] Before compound treatment, the media was changed to 1 mL media, and then the 12-well plate was treated as follows. The 10 mM stock dissolved in DMSO was serially diluted 1/100 or 1/10 with the media, and the compound was treated to the cells at a final concentration of 0.001, 0.01, and 0.1 μM, and harvested after 24 hours. For the negative control group, DMSO diluted 1/1000 in the media was added (1 μL DMSO+999 μL media).
[Harvest]24 hours after compound treatment, each well was scraped with a cell lifter (SPL, 90040), pipetted with a 1 mL pipette, collected in a 1.5 mL microtube, and centrifuged (500 g, 5 min, 4° C.). The supernatant was removed, washed with PBS, and centrifuged again (500 g, 5 min, 4° C.). Afterwards, the supernatant was removed to prepare a pellet.
[Cell lysis and sample preparation] Lysis buffer was prepared as follows. RIPA buffer (Biosesang, RC2038-050-00)+0.5 mM PMSF (SIGMA, P7626)+1× Protease/Phosphatase Inhibitor (Cell signaling, 5872S) were added at 30 μL per tube, vortexed, and incubated on ice for 30 minutes. Afterwards, sonication was performed (10 sec pulse, 30 sec rest, 5 cycles, 70% amplification) and centrifugation was performed (15,000 g, 15 min, 4° C.), and only the supernatant was transferred to a microtube. A 96-well plate was diluted to 1/4 with 7.5 μL of RIPA buffer and 2.5 μL of sample, and 200 μL each was added after mixing A and B of the BCA Protein Assay Kit (iNtRON, 21071) in a ratio of 50:1. The plate was incubated at 37° C. for 30 minutes and left at room temperature for 10 minutes. After shaking for 10 seconds with a SYNERGY H1 microplate reader from BioTek, the absorbance was measured at 562 nm. The protein was quantified using the measured value to make a sample, which was then incubated at 70° C. for 10 minutes. The sample buffer used here was a mixture of NuPAGE or Bolt 4× sample buffer (Invitrogen) and each 10× sample reducing agent depending on the gel to be used, and RIPA buffer was used for protein dilution.
[Western blotting detection] Equal amounts of samples were loaded onto NuPAGE or Bolt Bis-tris 4-12% gradient gel and run (200 V, 35 min). This was transferred to […] NC membrane using Trans-blot Turbo (BIO-RAD) (1.3 A constant, 25 V limit, 15 min), and blocked with 5% skim milk/0.2% TBST for 45 min at room temperature. Anti-SHPTP2 Mouse (1:1,000 in 5% skim milk/0.2% TBST, size: 70 kDa, Santa cruz sc-7384) and Anti-GAPDH Rabbit (1:2,000 in 5% skim milk or 5% BSA/0.2% TBST, size: 37 kDa, CST #2118) were added and incubated overnight at 4° C. After washing three times with 0.2% TBST washing buffer for 5 minutes each, secondary antibodies Anti-Mouse IgG (1:5,000 in 5% skim milk/0.2% TBST, CST) and IRDye® 680RD Goat anti-Rabbit IgG Secondary Antibody (1:10,000 in 5% skim milk/0.2% TBST, LI-COR 926-68071) were added, and incubated on a rocker at room temperature for 45 minutes. The resultants were washed five times with 0.2% TBST washing buffer for 5 minutes each, and detected using LI-COR's Odyssey. GAPDH was detected with a 700 nm channel, and SHPTP2 was detected using SuperSignal West Pico PLUS Chemiluminescent Substrate.

| SMILES | SHP2% degradation (0.01 μM) | SHP2% degradation (0.1 μM) |
| --- | --- | --- |
| CC(=O)N[C@H](C(=O)N1C[C@H](O)C[C@H]1C(=O)NCc1ccc(-c2scnc2C)cc1O[C@H]1CC[C@H](C(=O)N2CCC(Nc3nccc(Sc4cnc(N5CCC(C)(CN)CC5)c(CO)n4)c3Cl)CC2)CC1)C(C)(C)C [Example 45, (2S,4R)-1-((S)-2-acetamido-3,3-dimethylbutanoyl)-N-(2-(((1r,4S)-4-(4-((4-((5-(4-(aminomethyl)-4-methylpiperidin-1-yl)-6-(hydroxymethyl)pyrazin-2-yl)thio)-3-chloropyridin-2-yl)amino)piperidine-1-carbonyl)cyclohexyl)oxy)-4-(4-methylthiazol-5-yl)benzyl)-4-hydroxypyrrolidine-2-carboxamide] | 97.0% | 99.4% |
| CC(=O)N[C@H](C(=O)N1C[C@H](O)C[C@H]1C(=O)NCc1ccc(-c2scnc2C)cc1O[C@H]1CC[C@H](C(=O)N2CCC(c3cccc(Sc4cnc(N5CCC(C)(CN)CC5)cn4)c3Cl)CC2)CC1)C(C)(C)C [Example 46, (2S,4R)-1-((S)-2-acetamido-3,3-dimethylbutanoyl)-N-(2-(((1r,4S)-4-(4-(3-((5-(4-(aminomethyl)-4-methylpiperidin-1-yl)pyrazin-2-yl)thio)-2-chlorophenyl)piperidine-1-carbonyl)cyclohexyl)oxy)-4-(4-methylthiazol-5-yl)benzyl)-4-hydroxypyrrolidine-2-carboxamide] | 33.8% | 93.2% |
| CC(=O)N[C@H](C(=O)N1C[C@H](O)C[C@H]1C(=O)NCc1ccc(-c2scnc2C)cc1O[C@H]1CC[C@H](C(=O)N2CCC(c3nccc(Sc4cnc(N5CCC(C)(CN)CC5)cn4)c3Cl)CC2)CC1)C(C)(C)C [Example 47, (2S,4R)-1-((S)-2-acetamido-3,3-dimethylbutanoyl)-N-(2-(((1r,4S)-4-(4-(4-((5-(4-(aminomethyl)-4-methylpiperidin-1-yl)pyrazin-2-yl)thio)-3-chloropyridin-2-yl)piperidine-1-carbonyl)cyclohexyl)oxy)-4-(4-methylthiazol-5-yl)benzyl)-4-hydroxypyrrolidine-2-carboxamide] | −34.6% | 50.6% |
| CC(=O)N[C@H](C(=O)N1C[C@H](O)C[C@H]1C(=O)N[C@@H](C)c1ccc(-c2scnc2C)cc1O[C@H]1CC[C@H](C(=O)N2CC(Nc3cccc(Sc4cnc(N5CCC(C)(CN)CC5)cn4)c3Cl)C2)CC1)C(C)(C)C [Example 48, (2S,4R)-1-((S)-2-acetamido-3,3-dimethylbutanoyl)-N—((S)-1-(2-(((1R,4S)-4-(3-((3-((5-(4-(aminomethyl)-4-methylpiperidin-1-yl)pyrazin-2-yl)thio)-2-chlorophenyl)amino)azetidine-1-carbonyl)cyclohexyl)oxy)-4-(4-methylthiazol-5-yl)phenyl)ethyl)-4-hydroxypyrrolidine-2-carboxamide] | 88.8% | 98.3% |
| CC(=O)N[C@H](C(=O)N1C[C@H](O)C[C@H]1C(=O)N[C@@H](C)c1ccc(-c2scnc2C)cc1O[C@H]1CC[C@H](C(=O)N2CC(Nc3nccc(Sc4cnc(N5CCC(C)(CN)CC5)cn4)c3Cl)C2)CC1)C(C)(C)C [Example 49, (2S,4R)-1-((S)-2-acetamido-3,3-dimethylbutanoyl)-N—((S)-1-(2-(((1R,4S)-4-(3-((4-((5-(4-(aminomethyl)-4-methylpiperidin-1-yl)pyrazin-2-yl)thio)-3-chloropyridin-2-yl)amino)azetidine-1-carbonyl)cyclohexyl)oxy)-4-(4-methylthiazol-5-yl)phenyl)ethyl)-4-hydroxypyrrolidine-2-carboxamide] | 87.1% | 99.4% |
